The source made the active and inactive calls. The rule behind the calls is not given here.
Key:
[1] = Clearance in Sprague-Dawley rat at 1 mg/kg, iv by LC/MS/MS analysis; format: ADME, organism-based; conditions: in vivo
[2] = Half life in human liver microsomes by LC/MS/MS analysis; format: ADME
[3] = target: T1, Cytochrome P450 1A2 (Homo sapiens, UniProt P05177); experiment: Inhibition of CYP1A2 in human liver microsomes using phenacetin as substrate in presence of NADPH by LC/MS/MS analysis; format: ADME
T1 sequence (P05177 whole entry): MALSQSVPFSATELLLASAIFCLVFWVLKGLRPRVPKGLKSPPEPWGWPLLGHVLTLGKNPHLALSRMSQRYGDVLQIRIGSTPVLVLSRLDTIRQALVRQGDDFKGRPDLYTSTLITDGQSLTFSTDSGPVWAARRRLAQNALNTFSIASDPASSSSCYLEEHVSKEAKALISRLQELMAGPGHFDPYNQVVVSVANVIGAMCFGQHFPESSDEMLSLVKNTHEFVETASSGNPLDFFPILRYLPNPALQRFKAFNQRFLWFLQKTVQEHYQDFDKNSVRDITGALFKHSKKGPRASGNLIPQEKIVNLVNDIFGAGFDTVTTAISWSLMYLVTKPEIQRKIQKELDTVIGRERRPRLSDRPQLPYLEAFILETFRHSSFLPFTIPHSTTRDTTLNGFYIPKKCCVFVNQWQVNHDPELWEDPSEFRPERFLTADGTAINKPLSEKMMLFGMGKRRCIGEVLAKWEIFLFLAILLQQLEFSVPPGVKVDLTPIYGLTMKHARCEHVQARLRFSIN

[4] = target: Cytochrome P450 2C9 (Homo sapiens, UniProt P11712); experiment: Inhibition of CYP2C9 in human liver microsomes using diclofenac as substrate in presence of NADPH by LC/MS/MS analysis; format: ADME
Sequence of Cytochrome P450 2C9 (P11712 whole entry): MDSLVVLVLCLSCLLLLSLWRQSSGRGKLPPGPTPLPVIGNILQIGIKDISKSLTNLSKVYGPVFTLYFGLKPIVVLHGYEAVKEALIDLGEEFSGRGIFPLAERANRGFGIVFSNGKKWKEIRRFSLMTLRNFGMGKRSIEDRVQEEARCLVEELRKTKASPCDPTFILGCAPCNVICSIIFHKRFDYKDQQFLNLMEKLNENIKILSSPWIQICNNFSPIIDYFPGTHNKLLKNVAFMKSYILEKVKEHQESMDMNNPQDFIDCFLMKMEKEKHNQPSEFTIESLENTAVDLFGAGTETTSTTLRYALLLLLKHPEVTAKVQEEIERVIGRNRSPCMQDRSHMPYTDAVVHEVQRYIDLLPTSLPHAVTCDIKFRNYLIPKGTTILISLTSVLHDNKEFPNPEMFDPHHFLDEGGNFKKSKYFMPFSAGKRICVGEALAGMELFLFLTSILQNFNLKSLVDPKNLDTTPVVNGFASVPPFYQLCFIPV

[5] = target: Cytochrome P450 2C19 (Homo sapiens, UniProt P33261); experiment: Inhibition of CYP2C19 in human liver microsomes using S-mephenytoin as substrate in presence of NADPH by LC/MS/MS analysis; format: ADME
Sequence of Cytochrome P450 2C19 (P33261 whole entry): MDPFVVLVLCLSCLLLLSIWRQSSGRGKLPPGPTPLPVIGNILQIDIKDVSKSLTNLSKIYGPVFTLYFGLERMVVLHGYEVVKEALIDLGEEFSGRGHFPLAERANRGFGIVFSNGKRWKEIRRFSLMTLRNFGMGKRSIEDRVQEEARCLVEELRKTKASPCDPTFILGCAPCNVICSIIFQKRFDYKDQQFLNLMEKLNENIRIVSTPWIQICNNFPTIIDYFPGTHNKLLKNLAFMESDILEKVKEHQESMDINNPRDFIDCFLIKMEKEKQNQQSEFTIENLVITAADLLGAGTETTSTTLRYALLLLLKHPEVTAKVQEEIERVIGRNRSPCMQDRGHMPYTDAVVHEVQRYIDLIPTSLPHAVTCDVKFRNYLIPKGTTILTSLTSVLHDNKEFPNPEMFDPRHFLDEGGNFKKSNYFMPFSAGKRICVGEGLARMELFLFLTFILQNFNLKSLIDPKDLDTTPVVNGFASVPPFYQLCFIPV

[6] = target: Cytochrome P450 2D6 (Homo sapiens, UniProt P10635); experiment: Inhibition of CYP2D6 in human liver microsomes using dextromethorphan as substrate in presence of NADPH by LC/MS/MS analysis; format: ADME
Sequence of Cytochrome P450 2D6 (P10635 whole entry): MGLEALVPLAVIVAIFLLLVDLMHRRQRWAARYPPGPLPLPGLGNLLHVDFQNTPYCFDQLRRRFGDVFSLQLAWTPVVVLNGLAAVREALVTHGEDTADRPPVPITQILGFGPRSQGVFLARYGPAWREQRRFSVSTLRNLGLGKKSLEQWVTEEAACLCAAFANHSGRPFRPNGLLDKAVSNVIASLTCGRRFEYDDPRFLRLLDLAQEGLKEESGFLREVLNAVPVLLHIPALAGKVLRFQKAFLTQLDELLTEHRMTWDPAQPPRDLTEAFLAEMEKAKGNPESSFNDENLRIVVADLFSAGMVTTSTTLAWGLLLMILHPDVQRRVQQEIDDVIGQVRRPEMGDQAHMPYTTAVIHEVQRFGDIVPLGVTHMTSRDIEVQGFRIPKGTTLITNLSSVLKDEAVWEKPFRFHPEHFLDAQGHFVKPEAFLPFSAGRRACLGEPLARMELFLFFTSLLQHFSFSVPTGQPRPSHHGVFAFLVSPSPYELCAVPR

[7] = Half life in cynomolgus monkey liver microsomes by LC/MS/MS analysis; format: ADME, Macaca fascicularis
[8] = Oral bioavailability in Sprague-Dawley rat at 5 mg/kg by LC/MS/MS analysis; format: ADME, organism-based; conditions: in vivo
[9] = AUC (0 to infinity) in Sprague-Dawley rat at 5 mg/kg, po by LC/MS/MS analysis; format: ADME, organism-based; design: dose 5 mg/kg, time infinity, route oral; conditions: in vivo
[10] = Binding affinity to partial length human ALK 1151Tins mutant expressed in mammalian system by KINOMEscan assay
[11] = AUC (0 to infinity) in CD-1 mouse at 1 mg/kg, iv by LC/MS/MS analysis; format: ADME, organism-based; design: dose 1 mg/kg, time infinity, route intravenous; conditions: in vivo
[12] = AUC (0 to infinity) in Sprague-Dawley rat at 1 mg/kg, iv by LC/MS/MS analysis; format: ADME, organism-based; design: dose 1 mg/kg, time infinity, route intravenous; conditions: in vivo
[13] = Tmax in cynomolgus monkey at 10 mg/kg, po by LC/MS/MS analysis; format: ADME, organism-based, Macaca fascicularis; conditions: in vivo
[14] = AUC (0 to infinity) in CD-1 mouse at 10 mg/kg, po by LC/MS/MS analysis; format: ADME, organism-based; design: dose 10 mg/kg, time infinity, route oral; conditions: in vivo
[15] = AUC (0 to infinity) in cynomolgus monkey at 10 mg/kg, po by LC/MS/MS analysis; format: ADME, organism-based, Macaca fascicularis; design: dose 10 mg/kg, route oral, time infinity; conditions: in vivo
[16] = AUC (0 to 48 hrs) in Sprague-Dawley rat brain at 30 mg/kg, po by LC/MS/MS analysis; format: ADME, organism-based; design: dose 30 mg/kg, time < 48 hr, route oral
[17] = test system: SUP-M2; experiment: Induction of apoptosis assessed as caspase 3/7 activation in human SUP-M2 cells expressing NPM-ALK; format: functional, cell-based
[18] = test system: KARPAS-299; experiment: Induction of apoptosis assessed as caspase 3/7 activation in human KARPAS299 expressing NPM-ALK; format: functional
[19] = test system: Mus musculus; experiment: Inhibition of NPM-ALK phosphorylation in human SUP-M2 cells xenografted in mouse at 30 mg/kg, po administered as single dose measured upto 12 hrs; format: functional, organism-based
[20] = test system: Mus musculus; experiment: Inhibition of NPM-ALK phosphorylation in human SUP-M2 cells xenografted in mouse at 30 mg/kg, po administered as single dose measured upto 24 hrs; format: functional
[21] = Drug level in plasma of NPM-ALK expressing human SUP-M2 cells xenografted mouse at 30 mg/kg, po administered as single dose measured at 2 hrs by LC-MS/MS analysis; format: ADME, organism-based
[22] = Drug level in tumor of NPM-ALK expressing human SUP-M2 cells xenografted mouse at 30 mg/kg, po administered as single dose measured at 2 hrs by LC-MS/MS analysis; format: ADME, organism-based, Neoplasm; conditions: read-out: Drug uptake
[23] = Drug level in plasma of NPM-ALK expressing human SUP-M2 cells xenografted mouse at 30 mg/kg, po administered as single dose measured at 24 hrs by LC-MS/MS analysis; format: ADME, organism-based
[24] = test system: SUP-M2; experiment: Antitumor activity against human SUP-M2 cells expressing NPM-ALK xenografted in SCID-Beige mouse assessed as tumor ablation at 55 mg/kg, po qd administered for 12 days measured during compound dosing; format: functional, organism-based
[25] = test system: SUP-M2; experiment: Antitumor activity against human SUP-M2 cells expressing NPM-ALK xenografted in po dosed SCID-Beige mouse assessed as reduction in tumor volume administered twice daily for 12 days measured during compound dosing; format: functional, organism-based
[26] = test system: NCI-H2228; experiment: Antitumor activity against human NCI-H2228 cells expressing EML4-ALK xenografted in SCID-Beige mouse assessed as reduction in tumor volume at 30 mg/kg, po bid administered for 11 days measured during compound dosing; format: functional, organism-based
[27] = test system: NCI-H2228; experiment: Antitumor activity against human NCI-H2228 cells expressing EML4-ALK xenografted in SCID-Beige mouse assessed as reduction in tumor re-emergence at 30 and 55 mg/kg, po bid for 11 days followed by switching of drug schedule to 55 mg/kg, po qd on day 12 up to day 40 and measured on day 80; format: functional, organism-based
[28] = test system: Mus musculus; experiment: Inhibition of FAK phosphorylation in human CWR22 cells xenografted in Nu/Nu mouse at 55 mg/kg, po administered as single dose by immunoblot analysis; format: functional, organism-based; conditions: TDE = time-dependent effect
[29] = Drug level in plasma of FAK expressing human CWR22 cells xenografted Nu/Nu mouse at 55 mg/kg, po administered as single dose measured at 2 hrs by LC-MS/MS analysis; format: ADME, organism-based
[30] = Drug level in plasma of FAK expressing human CWR22 cells xenografted Nu/Nu mouse at 55 mg/kg, po administered as single dose measured at 6 hrs by LC-MS/MS analysis; format: ADME, organism-based
[31] = test system: Mus musculus; experiment: Toxicity in SCID-Beige mouse xenografted with human HCC827 cells expressing activated FAK assessed as body weight loss at 30 to 55 mg/kg, po bid administered for 28 days measured every 2 to 3 days; format: organism-based; conditions: in vivo
[32] = test system: CTG-0142; experiment: Antitumor activity against human CTG-0142 cells expressing activated FAK xenografted in mouse assessed as tumor stasis at 55 mg/kg, po bid administered for 28 days measured during compound dosing; format: functional, organism-based

With `CNC(=O)c1ccccc1Nc1nc(Nc2ccc3c(c2OC)CCC[C@H](N2CCN(CCO)CC2)C3)ncc1Cl` [CEP-37440] the clearance [1] was 3 to 4 mL/min/kg, the half-life [2] was 40 min and the IC50 [3] was over 5.6 µM. It also gave an IC50 [4] of over 5.6 µM, an IC50 [5] of over 5.6 µM and an IC50 [6] of over 5.6 µM. The half-life [7] was 21 min, the bioavailability [8] was 42% and the AUC(0-inf) [9] was 8360 ng·h/mL. It also gave a Kd [10] of 0.0026 µM, an AUC(0-inf) [11] of 1610 ng·h/mL and an AUC(0-inf) [12] of 4000 ng·h/mL. The Tmax [13] was 360 min, the AUC(0-inf) [14] was 16400 ng·h/mL and the AUC(0-inf) [15] was 2760 ng·h/mL. For the same compound, the AUC(0-t) at 48 h [16] was 61600 ng·h/mL, the Activity [17] was “Active” and the Activity [18] was “Active”. For the same compound, the inhibition [19] was “Active”, the inhibition in vivo at 30 mg/kg [20] was over 85% and the concentration at 2 h [21] was 4740 ng/mL. For the same compound, the concentration at 2 h [22] was 6040 ng/g, the concentration at 24 h [23] was 1160 ng/mL and the Activity [24] was “Active”. The Activity [25] was “Dose-dependent effect”, the Activity [26] was “Active” and the Activity [27] was “Active”. The inhibition [28] was “Tde”, the concentration at 2 h [29] was 4130 ng/mL and the concentration at 6 h [30] was 3790 ng/mL. For the same compound, the Activity [31] was “Non-Toxic” and the Activity [32] was “Active”.

From ChEMBL document CHEMBL3856231 (J Med Chem, 2016)
